Columns and labels:
[1] = test system: HOP-62; assay: NCI-60 five-dose assay; format: cell-based, human; settings: HOP-62 (Non-Small Cell Lung Cancer), 48 h; for GI50 / CC50: Homo sapiens; for GI50: read-out: GI50 Conc. per Cell Line; for CC50: read-out: LC50 (the source's name)
[2] = test system: A549/ATCC; assay: NCI-60 one-dose assay; format: cell-based; settings: Homo sapiens, A549/ATCC (Non-Small Cell Lung Cancer), read-out: Cell Inhibition Percent
[3] = test system: BT-549; assay: NCI-60 one-dose assay; format: cell-based; settings: Homo sapiens, BT-549 (Breast Cancer), read-out: Cell Inhibition Percent
[4] = test system: CCRF-CEM; assay: NCI-60 one-dose assay; format: cell-based; settings: Homo sapiens, CCRF-CEM (Leukemia), read-out: Cell Inhibition Percent
[5] = test system: SNB-19; assay: NCI-60 one-dose assay; format: cell-based; settings: Homo sapiens, SNB-19 (CNS cancer), read-out: Cell Inhibition Percent
[6] = test system: CAKI-1; assay: NCI-60 one-dose assay; format: cell-based; settings: Homo sapiens, CAKI-1 (Renal Cancer), read-out: Cell Inhibition Percent
[7] = test system: K-562; assay: NCI-60 one-dose assay; format: cell-based; settings: Homo sapiens, K562, K-562 (Leukemia), read-out: Cell Inhibition Percent
[8] = test system: NCI-H522; assay: NCI-60 one-dose assay; format: cell-based; settings: Homo sapiens, NCI-H522 (Non-Small Cell Lung Cancer), read-out: Cell Inhibition Percent
[9] = test system: SK-MEL-2; assay: NCI-60 one-dose assay; format: cell-based; settings: Homo sapiens, SK-MEL-2 (Melanoma), read-out: Cell Inhibition Percent
[10] = test system: OVCAR-3; assay: NCI-60 one-dose assay; format: cell-based; settings: Homo sapiens, OVCAR-3 (ovarian cancer), read-out: Cell Inhibition Percent
[11] = test system: DU-145; assay: NCI-60 one-dose assay; format: cell-based; settings: Homo sapiens, DU-145 (Prostate Cancer), read-out: Cell Inhibition Percent
[12] = test system: OVCAR-4; assay: NCI-60 one-dose assay; format: cell-based; settings: Homo sapiens, OVCAR-4 (ovarian cancer), read-out: Cell Inhibition Percent
[13] = test system: NCI-H460; assay: NCI-60 one-dose assay; format: cell-based; settings: Homo sapiens, NCI-H460 (Non-Small Cell Lung Cancer), read-out: Cell Inhibition Percent
[14] = test system: SK-MEL-28; assay: NCI-60 one-dose assay; format: cell-based; settings: Homo sapiens, SK-MEL-28 (Melanoma), read-out: Cell Inhibition Percent
[15] = test system: M14; assay: NCI-60 one-dose assay; format: cell-based; settings: Homo sapiens, M14 (Melanoma), read-out: Cell Inhibition Percent
[16] = test system: RXF 393; assay: NCI-60 one-dose assay; format: cell-based; settings: Homo sapiens, RXF 393 (Renal Cancer), read-out: Cell Inhibition Percent
[17] = test system: T-47D; assay: NCI-60 one-dose assay; format: cell-based; settings: Homo sapiens, T47D, T-47D (Breast Cancer), read-out: Cell Inhibition Percent
[18] = test system: MALME-3M; assay: NCI-60 one-dose assay; format: cell-based; settings: Homo sapiens, MALME-3M (Melanoma), read-out: Cell Inhibition Percent
[19] = test system: SN12C; assay: NCI-60 one-dose assay; format: cell-based; settings: Homo sapiens, SN12C (Renal Cancer), read-out: Cell Inhibition Percent
[20] = test system: SF-295; assay: NCI-60 one-dose assay; format: cell-based; settings: Homo sapiens, SF-295 (CNS cancer), read-out: Cell Inhibition Percent
[21] = test system: HS 578T; assay: NCI-60 one-dose assay; format: cell-based; settings: Homo sapiens, HS 578T (Breast Cancer), read-out: Cell Inhibition Percent
[22] = test system: HCC-2998; assay: NCI-60 one-dose assay; format: cell-based; settings: Homo sapiens, HCC-2998 (Colon Cancer), read-out: Cell Inhibition Percent
[23] = test system: SK-OV-3; assay: NCI-60 one-dose assay; format: cell-based; settings: Homo sapiens, SK-OV-3 (ovarian cancer), read-out: Cell Inhibition Percent
[24] = test system: COLO 205; assay: NCI-60 one-dose assay; format: cell-based; settings: Homo sapiens, COLO 205 (Colon Cancer), read-out: Cell Inhibition Percent
[25] = test system: HT29; assay: NCI-60 one-dose assay; format: cell-based; settings: Homo sapiens, HT-29, HT29 (Colon Cancer), read-out: Cell Inhibition Percent
[26] = test system: TK-10; assay: NCI-60 one-dose assay; format: cell-based; settings: Homo sapiens, TK-10 (Renal Cancer), read-out: Cell Inhibition Percent
[27] = test system: SW-620; assay: NCI-60 one-dose assay; format: cell-based; settings: Homo sapiens, SW-620 (Colon Cancer), read-out: Cell Inhibition Percent
[28] = test system: RPMI-8226; assay: NCI-60 one-dose assay; format: cell-based; settings: Homo sapiens, RPMI-8226 (Leukemia), read-out: Cell Inhibition Percent
[29] = test system: SR; assay: NCI-60 one-dose assay; format: cell-based; settings: Homo sapiens, SR (Leukemia), read-out: Cell Inhibition Percent
[30] = test system: NCI/ADR-RES; assay: NCI-60 one-dose assay; format: cell-based; settings: Homo sapiens, NCI/ADR-RES (ovarian cancer), read-out: Cell Inhibition Percent

Structure (SMILES)	TGI [1]	GI50 [1]	CC50 [1]	inhibition at 10 µM [2]	inhibition at 10 µM [3]	inhibition at 10 µM [4]	inhibition at 10 µM [5]	inhibition at 10 µM [6]	inhibition at 10 µM [7]	inhibition at 10 µM [8]	inhibition at 10 µM [9]	inhibition at 10 µM [10]	inhibition at 10 µM [11]	inhibition at 10 µM [12]	inhibition at 10 µM [13]	inhibition at 10 µM [14]	inhibition at 10 µM [15]	inhibition at 10 µM [16]	inhibition at 10 µM [17]	inhibition at 10 µM [18]	further results
O=C(NN=Cc1ccc([N+](=O)[O-])cc1)c1ccc2[nH]c(-c3ccc(Cl)cc3)nc2c1 [Compound 4c, N′-(4-Nitrobenzylidene)-2-(4-chlorophenyl)-1H-benzimidazole-5-carbohydrazide]	30.80 µM	6.42 µM	> 100 µM	65.5%	86%	90.1%	48%	57.2%	90.3%	67%	33.3%	88.7%	58%	77%	94.6%	54.6%	74.1%	68.4%	89.5%	92.2%	inhibition at 10 µM [19]: 80.3%; inhibition at 10 µM [20]: 78.3%; inhibition at 10 µM [21]: 63.2%; inhibition at 10 µM [22]: 85.1%; inhibition at 10 µM [23]: 39.5%; inhibition at 10 µM [24]: 97.7%; inhibition at 10 µM [25]: 91.8%; inhibition at 10 µM [26]: 10.2%; inhibition at 10 µM [27]: 87.3%; inhibition at 10 µM [28]: 89.2%; inhibition at 10 µM [29]: 108%; inhibition at 10 µM [30]: 22.7%
O=C(NN=Cc1ccc(Cl)cc1)c1ccc2[nH]c(-c3ccc(Cl)cc3)nc2c1 [Compound 4e, N′-(4-Chlorobenzylidene)-2-(4-chlorophenyl)-1H-benzimidazole-5-carbohydrazide]	4.10 µM	1.8 µM	9.32 µM	127%	0%	84.5%	95.7%	38.8%	91.3%	36.8%	61.1%	153%	69.5%	118%	134%	109%	80.3%	81.1%	113%	159%	inhibition at 10 µM [19]: 137%; inhibition at 10 µM [20]: 149%; inhibition at 10 µM [21]: 67%; inhibition at 10 µM [22]: 96.3%; inhibition at 10 µM [23]: 50.2%; inhibition at 10 µM [24]: 124%; inhibition at 10 µM [25]: 98.3%; inhibition at 10 µM [26]: 104%; inhibition at 10 µM [27]: 128%; inhibition at 10 µM [28]: 97.2%; inhibition at 10 µM [29]: 124%; inhibition at 10 µM [30]: 58.8%

— PMC10819888, “Benzimidazole-Based Derivatives as Apoptotic Antiproliferative Agents: Design, Synthesis, Docking, and Mechanistic Studies” (Molecules, 2024)
